What was measured:
hERG = hERG (Homo sapiens, UniProt Q12809); assay: Patch clamp assay (hERG tail currents, whole-cell)
[1] = system: MLLr leukemia cell line MV4-11; assay: Cell proliferation assay MV4;11 (CellTiter-Glo, 72 hours); assay type: cell-based; conditions: Homo sapiens; MV4-11 cells, 72 hours, CellTiter-Glo; read-out: MV4; 11 IC50
Procedure: Compounds were evaluated for its capacity to inhibit the proliferation of the MLLr leukemia cell line MV4-11 that harbors an MLL1-AF4 fusion protein. MV4-11 cells were cultured for 72 hours with limiting dilutions of compounds and viability was measured using CellTiter-Glo.
Compounds were dissolved to obtain as 10 mM solution in DMSO. The stock was diluted 1:5 to the top concentration of 2 mM in 100% DMSO. For IC50 determination, serial 1:3.16 dilutions were prepared in 100% DMSO by diluting 20 μL into 43.5 μL of DMSO for 8 concentrations. Each prepared DMSO solution were further diluted 1:500 in the cell culture media to obtain the 2× dosing solutions. The final concentrations of tested compounds in the cell culture media ranged from 0.632 nM to 2000 nM.
MV4-11 cells were cultured in IMDM with 10% FBS and 1× Penicillin-Streptomycin at 5% CO2 and 37° C. A cell suspension was prepared containing 15,000 cells/ml in the culture medium and 100 μL of this suspension was added per well to a 96-well cell culture plate. Then, 100 μL of 2× dosing media containing test compounds were added bringing the total volume to 200 μL. These cells were cultured for 72 hours at 37° C. and 5% CO2 in a humidified incubator.
After 72 hours, the cultured cells were mixed and 100 μL was transferred to a 96-well black plate. Cell Titer Glo (100 μl) was then added to this plate. The plate was mixed with shaking for 15 mins at RT, the luminescence was then measured using Tecan Spark 20M spectrophotometer. Cell Viability (%) was determined by RLU of test/RLU average vehicle control*100 and % max inhibition was determined by 100−(% cell viability remaining at the top concentration of compound).

hERG, sequence (Q12809 whole entry): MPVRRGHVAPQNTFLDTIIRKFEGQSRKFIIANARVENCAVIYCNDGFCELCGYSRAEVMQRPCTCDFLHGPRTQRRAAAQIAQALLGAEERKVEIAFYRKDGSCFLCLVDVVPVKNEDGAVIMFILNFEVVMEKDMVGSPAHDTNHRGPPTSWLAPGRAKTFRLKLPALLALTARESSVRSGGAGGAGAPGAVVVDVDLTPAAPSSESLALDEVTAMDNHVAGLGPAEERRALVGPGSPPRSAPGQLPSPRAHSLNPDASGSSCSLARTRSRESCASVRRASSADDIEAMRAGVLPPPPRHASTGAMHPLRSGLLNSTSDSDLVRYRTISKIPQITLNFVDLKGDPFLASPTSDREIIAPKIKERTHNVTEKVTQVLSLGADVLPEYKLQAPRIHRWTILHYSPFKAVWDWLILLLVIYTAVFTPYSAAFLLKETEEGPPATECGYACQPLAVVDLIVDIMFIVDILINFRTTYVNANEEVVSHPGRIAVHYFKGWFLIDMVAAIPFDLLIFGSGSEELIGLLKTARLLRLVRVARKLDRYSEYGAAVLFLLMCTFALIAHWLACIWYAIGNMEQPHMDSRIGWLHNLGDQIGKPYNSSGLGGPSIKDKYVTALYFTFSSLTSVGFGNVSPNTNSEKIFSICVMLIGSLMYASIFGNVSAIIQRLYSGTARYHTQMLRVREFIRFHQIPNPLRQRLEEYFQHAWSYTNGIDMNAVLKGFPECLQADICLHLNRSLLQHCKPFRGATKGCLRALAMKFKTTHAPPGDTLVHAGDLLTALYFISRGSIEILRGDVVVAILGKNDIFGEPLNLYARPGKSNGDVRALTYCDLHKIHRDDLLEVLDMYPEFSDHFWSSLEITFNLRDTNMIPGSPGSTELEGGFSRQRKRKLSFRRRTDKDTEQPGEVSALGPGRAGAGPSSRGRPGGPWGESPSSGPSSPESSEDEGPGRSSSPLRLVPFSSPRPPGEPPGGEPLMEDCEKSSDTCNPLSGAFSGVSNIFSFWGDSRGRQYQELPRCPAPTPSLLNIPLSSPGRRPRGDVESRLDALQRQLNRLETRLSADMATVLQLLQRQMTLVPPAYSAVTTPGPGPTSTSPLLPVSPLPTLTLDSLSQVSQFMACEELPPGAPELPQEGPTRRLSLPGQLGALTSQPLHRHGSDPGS

SMILES	hERG % Remaining (hERG; 10 μM compound)	hERG % Remaining (hERG; 30 μM compound)	IC50 [1] [nM]
CCN(C(=O)c1cc(F)ccc1Oc1cncnc1N1CC2(CCN(C[C@@H]3CC[C@@H](NS(=O)(=O)c4cnn(C)c4)CO3)CC2)C1)C(C)C [Example 68, N-Ethyl-5-fluoro-N-isopropyl-2-((4-(7-(((2S,5R)-5-((1-methyl-1H-pyrazole)-4-sulfonamido)tetrahydro-2H-pyran-2-yl)methyl)-2,7-diazaspiro[3.5]nonan-2-yl)pyrimidin-5-yl)oxy)benzamide]	+++ (≥66%)	+++ (≥66%)	< 100
CCN(C(=O)c1cc(F)ccc1Oc1cncnc1N1CC2(CCN(C[C@@H]3CC[C@@H](NS(=O)(=O)c4csc(C)n4)CO3)CC2)C1)C(C)C [Example 71, N-Ethyl-5-fluoro-N-isopropyl-2-((4-(7-(((2S,5R)-5-((2-methylthiazole)-4-sulfonamido)tetrahydro-2H-pyran-2-yl)methyl)-2,7-diazaspiro[3.5]nonan-2-yl)pyrimidin-5-yl)oxy)benzamide]	+++ (≥66%)	++ (233% and ≤66%)	< 100
CCN(C(=O)c1cc(F)ccc1Oc1cncnc1N1CC2(CCN(C[C@@H]3CC[C@@H](NS(=O)(=O)c4cnc(C)o4)CO3)CC2)C1)C(C)C [Example 72, N-Ethyl-5-fluoro-N-isopropyl-2-((4-(7-(((2S,5R)-5-((2-methyloxazole)-5-sulfonamido)tetrahydro-2H-pyran-2-yl)methyl)-2,7-diazaspiro[3.5]nonan-2-yl)pyrimidin-5-yl)oxy)benzamide]	++ (233% and ≤66%)	+ (<33%)	< 100
CCN(C(=O)c1cc(F)ccc1Oc1cncnc1N1CC2(CCN(C[C@@H]3CC[C@@H](NS(=O)(=O)c4c[nH]c(=O)cc4C)CO3)CC2)C1)C(C)C [Example 75, N-Ethyl-5-fluoro-N-isopropyl-2-((4-(7-(((2S,5R)-5-((4-methyl-6-oxo-1,6-dihydropyridine)-3-sulfonamido)tetrahydro-2H-pyran-2-yl)methyl)-2,7-diazaspiro[3.5]nonan-2-yl)pyrimidin-5-yl)oxy)benzamide]		+++ (≥66%)	< 100
Cc1ncc(S(=O)(=O)N[C@@H]2CC[C@@H](CN3CCC4(CC3)CN(c3ncncc3Oc3ccc(F)cc3C(=O)N(C(C)C)C(C)C)C4)OC2)o1 [Example 80, 5-Fluoro-N,N-diisopropyl-2-((4-(7-(((2S,5R)-5-((2-methyloxazole)-5-sulfonamido)tetrahydro-2H-pyran-2-yl)methyl)-2,7-diazaspiro[3.5]nonan-2-yl)pyrimidin-5-yl)oxy)benzamide]	++ (233% and ≤66%)	+ (<33%)	< 100
Cc1nc(S(=O)(=O)N[C@@H]2CC[C@@H](CN3CCC4(CC3)CN(c3ncncc3Oc3ccc(F)cc3C(=O)N(C(C)C)C(C)C)C4)OC2)cs1 [Example 81, 5-Fluoro-N,N-diisopropyl-2-((4-(7-(((2S,5R)-5-((2-methylthiazole)-4-sulfonamido)tetrahydro-2H-pyran-2-yl)methyl)-2,7-diazaspiro[3.5]nonan-2-yl)pyrimidin-5-yl)oxy)benzamide]	++ (233% and ≤66%)	++ (233% and ≤66%)	< 100
CCS(=O)(=O)N[C@@H]1CC[C@@H](CN2CCC3(CC2)CN(c2ncncc2Oc2ccc(F)cc2C(=O)N(C(C)C)[C@H]2C[C@H](O)C2)C3)OC1 [Example 259, 2-((4-(7-(((2S,5R)-5-(Ethylsulfonamido)tetrahydro-2H-pyran-2-yl)methyl)-2,7-diazaspiro[3.5]nonan-2-yl)pyrimidin-5-yl)oxy)-5-fluoro-N-((1r,3r)-3-hydroxycyclobutyl)-N-isopropylbenzamide]			< 100

Reference: patent US20240400564A1 (Syndax Pharmaceuticals, Inc, priority 2021, published 2024)
